From patent US20100317607A1, “USE OF COMPOUNDS FOR PREPARING ANTI-TUBERCULOSIS AGENTS” (INFECTIOUS DISEASE RESEARCH INSTITUTE, priority 2007, published 2010)
In brackets after ≈: the same amount, converted by molar mass. Structures can show the parent of a compound that is named as a salt. Where two headings read alike, the source gives them in different places.

Tested on: H37Rv strain of M. tuberculosis
Experiment: Alamar Blue Susceptibility Test (MABA)
Format: cell-based
Conditions: for MIC: Mycobacterium tuberculosis, read-out: MABA (TB growth inhibition, colourimetric assay)
[1] = H37Rv strain of M. tuberculosis, Alamar Blue

| SMILES | MIC [1] [µM] | further results |
| --- | --- | --- |
| Oc1ccc(CNc2nc(N3CCCCC3)nc3ccccc23)cc1 [Compound 164, 4-((2-(Piperidin-1-yl)quinazolin-4-ylamino)methyl)phenol] | 10 to 50 (≈ 3.34 to 16.7 µg/mL) |  |
| Fc1ccc(CNc2nc(NCc3ccccc3)c3ccccc3n2)cc1 [Compound 126, N^4-Benzyl-N^2-(4-fluorobenzyl)quinazoline-2,4-diamine hydrochloride] | 10 to 50 |  |
| c1ccc(CNc2nc(Nc3ccccc3)nc3ccccc23)cc1 [Compound 23, N^4-Benzyl-N^2-phenylquinazoline-2,4-diamine] | 10 to 50 (≈ 3.26 to 16.3 µg/mL) |  |
| c1ccc(C2(Nc3nc(N4CCCCC4)nc4ccccc34)CC2)cc1 [Compound 122, N-(1-Phenylcyclopropyl)-2-(piperidin-1-yl)quinazolin-4-amine] | 10 to 50 (≈ 3.44 to 17.2 µg/mL) |  |
| Cc1ccc(CNc2nc(NCc3ccc(F)cc3)c3ccccc3n2)o1 [Compound 170, N^4-(4-Fluorobenzyl)-N^2-((5-methylfuran-2-yl)methyl)quinazoline-2,4-diamine] | 10 to 50 (≈ 3.62 to 18.1 µg/mL) |  |
| CCOC(=O)CN1CCN(c2nc(NCc3ccccc3)c3ccccc3n2)CC1 [Compound 27, Ethyl 2-(4-(4-(benzylamino)quinazolin-2-yl)piperazin-1-yl)acetate] | 50 to 128 (≈ 20.3 to 51.9 µg/mL) |  |
| Cc1ccc(CCNc2nc(N3CCCCC3)nc3ccccc23)cc1 [Compound 87, N-(4-Methylphenethyl)-2-(piperidin-1-yl)quinazolin-4-amine hydrochloride] | 10 to 50 |  |
| CCCNc1nc(NCc2ccccc2)c2ccccc2n1 [Compound 67, N^4-Benzyl-N^2-propylquinazoline-2,4-diamine] | 10 to 50 (≈ 2.92 to 14.6 µg/mL) |  |
| c1ccc2c(NC34CC5CC(CC(C5)C3)C4)nc(N3CCOCC3)nc2c1 [Compound 61, N-(1′-Adamantyl)-2-(morpholino)quinazolin-4-amine] |  | MABA (TB growth inhibition, colourimetric assay) [1]: +++ (10-50 μM=+++) |
| FC(F)(F)c1ccc(CNc2nc(N3CCCCC3)nc3ccccc23)cn1 [Compound 196, 2-(Piperidin-1-yl)-N-((6-(trifluoromethyl)pyridin-3-yl)methyl)quinazolin-4-amine hydrochloride] | 10 to 50 |  |
| Cc1ccc([C@@H](C)Nc2nc(N3CCCCC3)nc3ccccc23)cc1 [Compound 101, (R)-2-(Piperidin-1-yl)-N-(1-p-tolylethyl)quinazolin-4-amine] | 10 to 50 (≈ 3.46 to 17.3 µg/mL) |  |
| FC(F)(F)Oc1ccc(CNc2nc(N3CCCCC3)nc3ccccc23)cc1 [Compound 162, 2-(Piperidin-1-yl)-N-(4-(trifluoromethoxy)benzyl)quinazolin-4-amine] | < 10 |  |
| CCOC(=O)CNc1nc(NCc2ccc(F)cc2)c2ccccc2n1 [Compound 206, Ethyl 2-(4-(4-fluorobenzylamino)quinazolin-2-ylamino)acetate hydrochloride] | 50 to 128 |  |
| Clc1ccc(CNc2nc(N3CCCCC3)nc3ccccc23)cn1 [Compound 194, N-((6-Chloropyridin-3-yl)methyl)-2-(piperidin-1-yl)quinazolin-4-amine hydrochloride] |  | MIC (H37RV): 10 to 50 µM |
| CN1CCN(c2nc(NCCNc3ccc([N+](=O)[O-])cc3)c3ccccc3n2)CC1 [Compound 11, N^1-(2-(4-Methylpiperazin-1-yl)quinazolin-4-yl)-N^2-(4-nitrophenyl)ethane-1,2-diamine] | 50 to 128 (≈ 20.4 to 52.2 µg/mL) |  |
| c1ccc(CCCNc2nc(N3CCCCC3)nc3ccccc23)cc1 [Compound 95, N-(3-Phenylpropyl)-2-(piperidin-1-yl)quinazolin-4-amine] | < 10 |  |
| Fc1ccc(CNc2nc(N3CCC(F)(F)CC3)c3ccccc3n2)c(F)c1 [Compound 148, N-(2,4-Difluorobenzyl)-4-(4,4-difluoropiperidin-1-yl)quinazolin-2-amine] | 10 to 50 (≈ 3.9 to 19.5 µg/mL) |  |
| Fc1ccc(CNc2nc(NCC3CCCCC3)nc3ccccc23)cc1 [Compound 208, N^2-(Cyclohexylmethyl)-N^4-(4-fluorobenzyl)quinazoline-2,4-diamine] | 10 to 50 (≈ 3.64 to 18.2 µg/mL) |  |

| SMILES | MIC [1] [µM] | further results |
| --- | --- | --- |
| Fc1ccc(CNc2nc(N3CCOCC3)nc3ccccc23)cc1 [Compound 169, N-(4-Fluorobenzyl)-2-morpholinoquinazolin-4-amine] | 10 to 50 (≈ 3.38 to 16.9 µg/mL) |  |
| c1ccc(Nc2nc(N3CCCCC3)nc3ccccc23)cc1 [Compound 72, N-Phenyl-2-(piperidin-1-yl)quinazolin-4-amine hydrochloride] | 50 to 128 |  |
| Clc1ccc(CNc2nc(N3CCCCC3)nc3ccccc23)s1 [Compound 189, N-((5-Chlorothiophen-2-yl)methyl)-2-(piperidin-1-yl)quinazolin-4-amine] | < 10 |  |
| c1ccc(CNc2nc(N3CCCCCC3)nc3ccccc23)cc1 [Compound 197, 2-(Azepan-1-yl)-N-benzylquinazolin-4-amine] | 10 to 50 (≈ 3.32 to 16.6 µg/mL) |  |
| Fc1ccc(CNc2nc(N3CCCC3)nc3ncccc23)cc1 [Compound 173, N-(4-Fluorobenzyl)-2-(pyrrolidin-1-yl)pyrido[2,3-d]pyrimidin-4-amine] | 10 to 50 (≈ 3.23 to 16.2 µg/mL) |  |
| Clc1ccc(C2(Nc3nc(N4CCCCC4)nc4ccccc34)CC2)cc1 [Compound 141, N-(1-(4-Chlorophenyl)cyclopropyl)-2-(piperidin-1-yl)quinazolin-4-amine hydrochloride] | 10 to 50 |  |
| COc1cc2c(cc1OC)CN(c1nc(N3CCCCC3)nc3ccccc13)CC2 [Compound 192, 4-(6,7-Dimethoxy-3,4-dihydroisoquinolin-2(1H)-yl)-2-(piperidin-1-yl)quinazoline] | 10 to 50 (≈ 4.05 to 20.2 µg/mL) |  |
| COc1ccc(CNc2nc(NCc3ccccc3)c3ccccc3n2)cc1 [Compound 129, N^4-Benzyl-N^2-(4-methoxybenzyl)quinazoline-2,4-diamine hydrochloride] | 10 to 50 |  |
| COc1cc2nc(N3CCCCC3)nc(NCc3ccc(F)cc3)c2cc1OC [Compound 150, N-(4-Fluorobenzyl)-6,7-dimethoxy-2-(piperidin-1-yl)quinazolin-4-amine hydrochloride] | 10 to 50 |  |
| c1ccc2c(c1)CN(c1nc(N3CCCCC3)nc3ccccc13)C2 [Compound 85, 4-(Isoindolin-2-yl)-2-(piperidin-1-yl)quinazoline hydrochloride] | 10 to 50 |  |
| CC(C)(C)OC(=O)N1CCN(c2nc(NCc3ccccc3)c3ccccc3n2)CC1 [Compound 31, tert-Butyl 4-(4-(benzylamino)quinazolin-2-yl)piperazine-1-carboxylate] | 10 to 50 (≈ 4.2 to 21 µg/mL) |  |
| Fc1ccc(CNc2nc(N3CCCC3)nc3ccccc23)cc1 [Compound 172, N-(4-Fluorobenzyl)-2-(pyrrolidin-1-yl)quinazolin-4-amine] | < 10 |  |
| Fc1ccc(CNc2nc(N3CCCCC3)c3ccccc3n2)cc1 [Compound 111, N-(4-Fluorobenzyl)-4-(piperidin-1-yl)quinazolin-2-amine hydrochloride] | 10 to 50 |  |
| Clc1ccc2nc(N3CCCCC3)nc(NCc3ccccc3)c2c1 [Compound 71, N-Benzyl-6-chloro-2-(piperidin-1-yl)quinazolin-4-amine] | 10 to 50 (≈ 3.53 to 17.6 µg/mL) |  |
| Fc1ccc(CNc2nc(NCc3ccc(F)cc3)c3ccccc3n2)cc1 [Compound 119, N^2,N^4-bis(4-Fluorobenzyl)quinazoline-2,4-diamine hydrochloride] | 10 to 50 |  |
| O=C(C1CC1)N1CCN(c2nc(NCc3ccc(F)cc3)c3ccccc3n2)CC1 [Compound 202, Cyclopropyl(4-(4-(4-fluorobenzylamino)quinazolin-2-yl)piperazin-1-yl)methanone hydrochloride] | 50 to 128 |  |
| c1ccc(CNc2nc(N3CCCOCC3)nc3ccccc23)cc1 [Compound 52, N-Benzyl-2-(1,4-oxazepan-4-yl)quinazolin-4-amine] | 10 to 50 (≈ 3.34 to 16.7 µg/mL) |  |
